We go through seven molecules from paper PMC6271323, “Preparation of Rotenone Derivatives and in Vitro Analysis of Their Antimalarial, Antileishmanial and Selective Cytotoxic Activities” (Molecules, 2014).

A short description of data set [1]: in vitro. The text has this: U937 cells (CRL-1593^TM) were isolated from human histiocytic lymphoma; Vero cells (CCL-81^TM) were derived from the kidney of the African green monkey, Cercopithecus aethiops; HepG2 (HB-8065^TM) cells were derived from human liver tissue, and CAD-R1 cells, a subclone, were derived from mouse neuronal cells. All cell lines were from American Type Culture Collection (Manassas, VA, USA), except CAD-R1 cells that were kindly donated by D. Chikaraishi and J. Wang (Department of Neurobiology, Duke University Medical Center, Durham, NC, USA). All cell lines were cultured in standard conditions at 37 °C, 5% CO2. U-937 cells were cultivated in RPMI 1640 medium supplemented with 10% fetal bovine serum (FBS) and antibiotics (penicillin 100 U/mL and streptomycin 0.1 mg/mL). Vero, HepG2 and CAD-R1 were cultivated in DMEM medium supplemented with 5% FBS and antibiotics.
(§1) Cytotoxic activity of rotenone and it derivatives on U-937, Vero, HepG2, […] and huMDM cells was evaluated in vitro using the MTT (3-(4,5-dimethylthiazol-2-yl)-2,5-diphenyltetrazolium bromide assay) as described previously. Cells were adjusted to 1 × 10^5 U-937 cells/mL, 2.5 × 10^5 Vero, HepG2 or CAD-R1 cells/mL and 5 × 10^5 huMDM cells/mL in RPMI 1640 supplemented with 10% SBF and the corresponding concentration of each compound. Six serial-based four-dilution concentrations from 200 to 0.19 μg/mL were tested. The amount of formazan produced by the viable cells was registered as optical densities (OD) obtained in an ELISA reader (Bio-Rad) at 570 nm. […] Additionally, hemolytic activity on huRBCs was assessed by the osmotic lysis method. In brief, O positive (O+) huRBCs were adjusted at 3% hematocrit saline solution and incubated in the presence of each compound (six serial four-fold dilutions from 200 to 0.19 µg/mL) at 37 °C. After 2 h, hemoglobin concentration in the supernatant was measured according to the OD obtained in an ELISA reader plate (Bio-Rad) at 570 nm. Cells exposed to saline solution with Triton X-100 were used as positive (lyses) controls, while unexposed cells were used as negative (viability) controls. Each compound and each concentration were assessed in triplicate in at least two separate experiments.
(§2) The percentage of viability (%V) was calculated using Equation 1, where the optical density (OD) of unexposed cells (negative control) corresponds to 100% of viability. In turn, mortality percentage corresponds to 100%–% viability: % Viability = (OD Exposed cells)/(OD Control cells) × 100(1)

A short description of data set [2]: in vitro. The following applies: human. Here is the method:
Primary cultures of human monocyte-derived macrophages (huMDMs) and human red blood cells (huRBCs) obtained from healthy donors after signing the informed consent were also used. The huMDM were obtained from peripheral mononuclear cells isolated by Ficoll-Hypaque 1077 gradient centrifugation. huMDMs were suspended at 3 × 10^5 cells/mL in RPMI 1640 medium supplemented with 10% autologous serum. One mL of suspension was dispensed into each well of 24-well chamber slides and incubated at 37 °C, 5% of CO2 for 72 h, according to a previously described methodology. On the other hand, huRBCs were obtained from sodium citrate anticoagulated whole blood. After centrifugation at 1,500 rpm for 10 min, the RBCs were recovered and suspended in RPMI 1640 medium at 50% hematocrit and stored at 4 °C until use.
as §1, §2

Data set [3] deals with intracellular amastigotes of Leishmania panamensis. The data set can be described thus: Leishmanicidal activity on intracellular amastigotes, flow cytometry (GFP). It is filed as cell-based. The following applies: for Index of Selectivity huMDM: IS = LC50 in huMDM/EC50 for L. panamensis; for EC50: Leishmania panamensis, read-out: Biological activity CE50 Leishmanicidal. Here is the method:
The leishmanicidal activity was tested on intracellular amastigotes of Leishmania panamensis by flow cytometry following the methodology previously described. Previously, huMDM were infected with promastigotes of L. panamensis transfected with the green fluorescent protein gene (MHOM/CO/87/UA140pIR-GFP) in a proportion of 35:1 (parasites:cells). Plates were incubated at 34 °C, 5% CO2, and after 3 h, cells were washed twice with phosphate buffer (PBS) and incubated again. After 24 h, the infected cells were exposed for 72 h to each concentration of the compounds. Cells were removed using trypsin/EDTA solution and washed twice with PBS by centrifuging 10 min at 1,100 rpm, 4 °C. Then, cells were analyzed in a flow cytometer (Cytomics FC 500MPL, Brea, CA, USA) by reading at 488-nm excitation, 525-nm emissions over an argon laser and counting 10,000 events. The percentage of infected cells was determined by dot plot analysis, while the parasitic load was calculated by the mean fluorescence intensity using histogram analysis. In parallel, cells incubated in medium alone were used as the controls of infection (negative control), and cells exposed to amphotericin B were used as controls of leishmanicidal activity (positive control). Each concentration was assessed in triplicate in at least two independent experiments.
Antileishmanial activity was determined according to the reduction of infected cells and their parasite load obtained for each experimental condition according to the fluorescence median intensity (FMI) emitted by the cytometer and using Equation 3, where the % of parasitemia in unexposed cells corresponds to 100% parasitemia. […] Results are expressed as the median effective concentration (EC50) calculated by probit analysis using the % of inhibition of infection: % parasitemia = (FMI Exposed cells)/(FMI unexposed cells) × 100(3)
(§3) The index of selectivity was calculated with the equation: IS = LC50/EC50.

Data set [4] has as its system Plasmodium falciparum (chloroquine sensitive 3D7 strain). The data set can be described thus: microbe, parasite or virus in culture. The class given is cell-based. The note with it: for Index of Selectivity huRBC: IS = LC50 in huRBC/EC50 in P. falciparum; for EC50: read-out: Biological activity CE50 Antiplasmodial. Here is the method: The effect of compounds on the growth of the parasites was assessed by quantification of the parasite DNA stained with ethidium bromide (EtBr). Briefly, unsynchronized cultures of P. falciparum were adjusted to a 1.5%–2% parasitemia and 5% hematocrit in RPMI medium supplemented with 10% human serum. Then, 500 µL of parasites and 500 µL of each concentration of compound were placed in each well of 24-well plates. Plates were incubated for 72 h at 37 °C in a N2 (90%), CO2 (5%) and O2 (5%) atmosphere. […] After 72 h of exposure, DNA from parasites was extracted and purified using a lysis solution containing proteinase K. Each compound and each concentration were assessed in triplicate in at least two separate experiments.
Results are expressed as the median effective concentration (EC50) calculated by probit analysis using the % of inhibition: % parasite growth = (FAU Exposed parasites)/(FAU unexposed parasites) × 100(2)
as §3

Setting [5] is: African green monkey (Cercopithecus aethiops).
Setting [6] is: L. panamensis intracellular amastigotes in huMDM, 72 h exposure, ± SD, n = 6 replicates.
Where [7] appears, read: Plasmodium falciparum, 3D7, 72 h, total forms of P. falciparum 3D7, unsynchronized culture, 72 h, ± SD, n = 6 replicates.
Setting [8] is: total forms of P. falciparum 3D7, unsynchronized culture, 72 h, ± SD, n = 6 replicates.

Like-named read-outs stand apart in the source and are kept apart here. Some results are limits rather than exact numbers.

With `COc1cc2c(cc1OC)C1Cc3ccc4c(c3O[C@@H]1CO2)C[C@H](C(C)C)O4` (stereo partly drawn) [Compound 7, 2R,6aS,12aS-2-Isopropyl-8,9-dimethoxy-1,2,6,6a,12,12a-hexahydrochromeno-[3,4-b]furo[2,3-h]-chromene], the CC50 in “in vitro [1]” (setting [5]) is greater than 476 µM; in “in vitro [1]” (mouse), 1.67 ± 0.9 µM; in “in vitro [2]”, greater than 476 µM. In addition, the “Index of Selectivity huMDM” value in data set [3] is recorded as less than 4.0. Besides, the EC50 in data set [3] (setting [6]) was greater than 119 µM; in data set [4] (setting [7]), less than 50 µM; in data set [4] (setting [8]) it was 47.4 ± 0.2 µM. For the same molecule, the “Index of Selectivity huRBC” value in data set [4] is reported as 8.7.

Consider `C=C(C)[C@H]1Cc2c(ccc3c2O[C@@H]2COc4cc(OC)c(OC)cc4[C@@H]2C3O)O1` (stereo partly drawn) [Compound 3, 2R,6aR,12aS-8,9-Dimethoxy-2-(prop-1-en-2-yl)-1,2,6,6a,12,12a-hexahydrochromeno[3,4-b]furo[2,3-h]chromen-6-ol], for which the CC50 was 284 ± 23.6 µM in the data set “in vitro [1]” (setting [5]), 17 ± 3.4 µM in “in vitro [1]” (mouse) and greater than 523 µM in “in vitro [2]”. Further, the “Index of Selectivity huMDM” value in data set [3] is on record as less than 3.9. For the same molecule, the EC50 is greater than 130 µM in data set [3] (setting [6]), less than 50 µM in data set [4] (setting [7]) and 53.9 ± 2.4 µM in data set [4] (setting [8]). Besides, in data set [4], the “Index of Selectivity huRBC” value is given as greater than 9.6.

Turning to `C[C@@H]1[C@H](O)[C@@H](C)/C=C/C=C/C=C/C=C/C=C/C=C/C=C/[C@H](O[C@@H]2O[C@H](C)[C@@H](O)[C@H](N)[C@@H]2O)C[C@@H]2O[C@](O)(C[C@@H](O)C[C@@H](O)[C@H](O)CC[C@@H](O)C[C@@H](O)CC(=O)O[C@H]1C)C[C@H](O)[C@H]2C(=O)O` [Amphotericin B, reference compound], the CC50 in the data set “in vitro [1]” (setting [5]) came out at 15.6 ± 0.4 µM; in “in vitro [1]” (mouse), 54.5 ± 0.3 µM. In data set [3], the “Index of Selectivity huMDM” value is reported as 143.0. Moreover, the EC50 in data set [3] (setting [6]) stood at 0.8 ± 0.2 µM.

For the molecule `CCN(CC)CCCC(C)Nc1ccnc2cc(Cl)ccc12` (stereo not drawn) [Chloroquine, reference compound], the EC50 in data set [4] (setting [7]) turned out to be 0.06 ± 0.03 µM.

With `COc1cc2c(cc1OC)[C@@H]1C(=O)c3ccc4c(c3O[C@@H]1CO2)C[C@H](C1(C)CO1)O4` (stereo partly drawn) [Compound 2, 6aS,12aS-8,9-Dimethoxy-2-(2-methyloxiran-2-yl)-1,2,12,12a-tetrahydrochromeno[3,4-b]furo[2,3-h]-chromen-6(6aH)-one], the CC50 is 81.3 ± 16.9 µM in “in vitro [1]” (setting [5]), 29 ± 3 µM in the data set “in vitro [1]” (mouse) and greater than 505 µM in the data set “in vitro [2]”. Further, the “Index of Selectivity huMDM” value in data set [3] was less than 3.6. Further, the EC50 in data set [3] (setting [6]) is greater than 126 µM; in data set [4] (setting [7]), less than 50 µM; in data set [4] (setting [8]), 41.7 ± 12.6 µM. Further, the “Index of Selectivity huRBC” value in data set [4] is greater than 12.1.

With `C=C(C)[C@H]1Cc2c(ccc3c2O[C@@H]2COc4cc(OC)c(OC)cc4[C@@H]2C3=O)O1` [Compound 1, rotenone], the results for the CC50 in “in vitro [1]” (setting [5]) and in “in vitro [1]” (mouse) were greater than 508 µM and 10.2 µM, respectively. The molecule further registered a CC50 at 2 h in the data set “in vitro [2]” greater than 508 µM. The “Index of Selectivity huMDM” value in data set [3] was 3.1. The EC50 in data set [3] (72 h) stood at 127 ± 17.3 µM; in data set [4] (Plasmodium falciparum, 3D7, 72 h), 19 ± 8.6 µM. Also, the “activity against intracellular amastigotes (in words)” value in data set [3] (antileishmanial activity, L. panamensis) was “inactive”. Further, the “Index of Selectivity huRBC” value in data set [4] (listed as 1 (Rotenone)) was greater than 26.1.

With `COc1cccc2c1C(=O)c1c(O)c3c(c(O)c1C2=O)C[C@@](O)(C(=O)CO)C[C@@H]3O[C@H]1C[C@H](N)[C@H](O)[C@H](C)O1` [Doxorubicin, reference compound], the CC50 worked out at 9.36 ± 2.2 µM in “in vitro [1]” (setting [5]) and 2.6 ± 0.7 µM in “in vitro [1]” (mouse).
